This passage reports EC50 results from patent publication US12617799B2, “Pyrazolopyrimidinone compounds” (Orphagen Pharmaceuticals, Inc., priority 2021, dated 2026).

Some results are limits rather than exact numbers.

Experiment [1] concerns rat Leydig tumor cell line R2C. The experiment in a line: R2C proliferation assay for SF-1 antagonists (EdU incorporation). Type of experiment: cell-based. Particulars: R2C, read-out: R2C: EC50. As for the experimental part: SF-1 regulates progenitor cell formation and survival in adult Leydig cells. Anti-proliferative effects of SF-1 antagonists using a SF-1+ rat Leydig tumor cell line, R2C, was investigated. Cell proliferation was measured by detecting DNA incorporation of EdU, a nucleoside analogue that can be fluorescently tagged after cell fixation.
Proliferation of the rat Leydig tumor cell line R2C (ATCC® CCL-97™) was assessed using 5-ethynyl-2′-deoxyuridine (EdU), a nucleoside analogue incorporated during DNA synthesis that can be fluorescently tagged after cell fixation. Cycloheximide, a protein synthesis inhibitor, was used as a positive control for the assay.
R2C cells are maintained according to a protocol provided by the American Type Culture Collection (ATCC). At the time of assay, R2C cells were diluted to 1.0 million cells/mL with culture medium (F12 medium supplemented with 2% FBS and 1% Penicillin-Streptomycin) and 50 uL of cell suspension seeded into each well of 384-well clear bottom plates. The assay plates were incubated in a humidified, 37° C., 6% CO2 atmosphere for 24 hours. Serially diluted SF-1 antagonists, cycloheximide or vehicle (DMSO) were then applied to the R2C cells and incubated in a humidified, 37° C., 6% CO2 atmosphere for two days. EdU (Invitrogen), at a final concentration of 5 μM, was added to the cells and incubated for an additional 16 hours, after which cells were fixed with 10% formalin.
Cells were then washed and permeabilized in 0.5% TritonX-100/PBS solution at RT for 1 hour. EdU incorporation was detected by labeling EdU with 6-FAM azide (Lumiprobe) using a copper (I)-catalyzed Click reaction between an azide and alkyne. The reaction mixture consists of 5 mM ascorbic acid, 1 mM CuSO4, 1 μM 6-FAM azide dissolved in PBS buffer. […] For data normalization, the average fluorescence of DMSO wells was defined as 100%, and average fluorescence of 10 μM cycloheximide wells was defined as 0%. Curve fitting and EC50 determination were performed using the variable slope sigmoidal dose-response analysis.
R2C cells were routinely cultured in R2C culture medium. To assay SF-1 antagonist inhibitory activity, R2C cells were resuspended in the R2C plating medium and plated into a 384 well-clear bottom black plate at 20,000 cells/50 μL/well. […] 10 μL EdU plating solution were then dispensed into each well of assay plate incubated at 37° C., 6% CO2 for two days.
R2C proliferation is measured by detecting the fluorescent labelled EdU. The R2C assay plates were fixed by dispense 60 μL of 10% formalin into each well, and the plates were incubated at room temperature for 1 hour on an orbital shaker. The plates were washed with 80 μL of PBS three times, and cells were permeabilized by treating with 100 μL of PBS-0.5% TritonX-100 at RT for 1 hour on an orbital shaker. The plates were washed with 80 μL of PBS three times, and after the last wash, 25 μL of PBS was dispensed into each well. 25 μL of 2× mounting mix solution was then added into each well of fixed cells, and the plates were incubated at RT for 30 min in the dark on an orbital shaker. The cells were washed with 80 μL of PBS, three times, and after the last wash, 25 μL of PBS was dispensed into each well. […] The cells were washed with 80 μL of PBS, three times, and after the last wash, 50 μL of PBS was dispensed into each well. Assay plates were sealed with aluminum foil, and fluorescence was measured using a Envision microplate reader.
The % of control for the proliferation activity was calculated according to the following equation: % of control=100×(A−C)/(B−C) Equation • A: fluorescence count in the test article-treated R2C cells • B: mean fluorescence count in the vehicle-treated R2C cells • C: mean fluorescence count in the 10 μM cycloheximide-treated R2C cells

Another experiment deals with T1, human SF-1 (Homo sapiens, UniProt Q13285).
T1 construct: expressed in transfected cells; host or cells: CHO-K1 cells (Chinese hamster ovary), transient cotransfection with pG5luc
The experiment in a line: SF-1 Luc assay (Gal4DBD-SF-1LBD luciferase reporter in transfected CHO-K1 cells). It counts as cell-based. Particulars: CHO-K1 cells transfected with GAL4-SF-1 plasmid, 40 hours incubation; read-out: hSF-1-Luc: EC50. The source says: BamHI and XbaI sites introduced by the primers […] (forward) and […] (reverse) were used for subcloning the amplicon into pFA-CMV.
Cells were routinely cultured by splitting them from 1:10 to 1:20. […] Four hours after transfection, cells were trypsinized and suspended to a concentration of 1.6×10^5 cells/ml in supplemented Ham's F-12 media.
Assays: The collected cells were resuspended in the culture medium and plated into a 384 well-white plate (Corning Life Sciences, Acton, MA) at 8,000 cells/50 μL/well.
Measurement of SF-1 Transcriptional Activity: SF-1 transcriptional activity was detected as the intracellular Luc activity using SteadyLite Plus HTS Reporter Gene Assay System. After the measurement of the cell viability, the culture media in the 384 well-plate were completely removed. Then, 30 μL of the Luc substrate solution was added into each well and incubated for 10 min at room temperature. After the incubation, luminescence of each well was measured by a microplate reader.
Calculation of the SF-1 Transcriptional Activity (% of Control): The % of control for the transcriptional activity was calculated according to the following equation: % of control=A/B×100 Equation • A: luminescence count in the test article-treated CHO cells transfected with GAL4-SF-1 plasmid • B: mean luminescence count in the vehicle-treated CHO cells transfected with GAL4-SF-1 plasmid
(Reporter assays use an easily measured gene product as a stand-in for the process of interest.)

T1 sequence (Q13285 198-461 limits assumed): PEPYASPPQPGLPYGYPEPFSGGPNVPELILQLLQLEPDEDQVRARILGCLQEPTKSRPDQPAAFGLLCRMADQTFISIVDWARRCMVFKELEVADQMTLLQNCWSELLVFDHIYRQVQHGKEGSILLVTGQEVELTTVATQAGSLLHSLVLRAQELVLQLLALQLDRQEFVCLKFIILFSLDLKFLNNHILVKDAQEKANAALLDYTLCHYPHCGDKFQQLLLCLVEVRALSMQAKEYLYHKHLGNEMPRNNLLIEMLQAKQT

The EC50 is the concentration at which the effect is half-maximal. Take `CCn1nc(Nc2ccc(C(F)(F)F)cc2)c2ncn(CC(=O)Nc3ccc(OC)c(F)c3)c(=O)c21` [Compound 77, 2-(1-ethyl-7-oxo-3-((4-(trifluoromethyl)phenyl)amino)-1,7-dihydro-6H-pyrazolo[4,3-d]pyrimidin-6-yl)-N-(3-fluoro-4-methoxyphenyl)acetamide]: the EC50 (in experiment [1]; at human SF-1) was below 0.2 µM in each case.
Take `CCn1nc(Nc2ccc(C(F)(F)F)cc2)c2ncn(CC(=O)N[C@H]3CC[C@H](OC(F)F)CC3)c(=O)c21` [Compound 80, N-((1r,4r)-4-(difluoromethoxy)cyclohexyl)-2-(1-ethyl-7-oxo-3-((4-(trifluoromethyl)phenyl)amino)-1,7-dihydro-6H-pyrazolo[4,3-d]pyrimidin-6-yl)acetamide]: the EC50 (in experiment [1]; on human SF-1) was below 0.2 µM each time.
As to `CCn1nc(Nc2ccc(C(F)(F)F)cc2)c2ncn(CC(=O)N[C@H]3CC[C@H](OCC(C)(C)O)CC3)c(=O)c21` [Compound 84, 2-(1-ethyl-7-oxo-3-((4-(trifluoromethyl)phenyl)amino)-1,7-dihydro-6H-pyrazolo[4,3-d]pyrimidin-6-yl)-N-((1r,4r)-4-(2-hydroxy-2-methylpropoxy)cyclohexyl)acetamide], the EC50 (in experiment [1]; at human SF-1) was below 0.2 µM throughout.
In the case of `CC(C)(O)CO[C@H]1CC[C@H](NC(=O)Cn2cnc3c(Nc4ccc(C(F)(F)F)cc4)nn(CC(F)(F)F)c3c2=O)CC1` [Compound 92, N-((1r,4r)-4-(2-hydroxy-2-methylpropoxy)cyclohexyl)-2-(7-oxo-1-(2,2,2-trifluoroethyl)-3-((4-(trifluoromethyl)phenyl)amino)-1,7-dihydro-6H-pyrazolo[4,3-d]pyrimidin-6-yl)acetamide], the EC50 (in experiment [1]; on human SF-1) was 0.2 to 1 µM throughout.
Take `COc1ccc(NC(=O)Cn2cnc3c(Nc4ccc(C(F)(F)F)cc4)nn(C(C)C)c3c2=O)cc1F` [Compound 98, N-(3-fluoro-4-methoxyphenyl)-2-(1-isopropyl-7-oxo-3-((4-(trifluoromethyl)phenyl)amino)-1,7-dihydro-6H-pyrazolo[4,3-d]pyrimidin-6-yl)acetamide]: the results for the EC50 (in experiment [1]; at human SF-1) were 1 to 10 µM and 0.2 to 1 µM, respectively.
